Measured values reported in ChEMBL document CHEMBL1201862, “PubChem BioAssay data set” (2004).
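48-hour exposure; five concentrations; linearly interpolated endpoints. GI50 marks 50% less growth.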 The source made the active and inactive calls. Rule as the data show it: active = GI50 up to about 1.1 µM and inactive = higher.

Key:
Test in all cases: NCI tumour cell line growth inhibition, 48 h
SK-MEL-28 = test system: SK-MEL-28
RPMI-8226 = test system: RPMI-8226
KM-20L2 = test system: KM-20L2
SNB-19 = test system: SNB-19
NCI-H226 = test system: NCI-H226
UO-31 = test system: UO-31
HCT-116 = test system: HCT-116
RXF 393 = test system: RXF 393
SF-539 = test system: SF-539
OVCAR-5 = test system: OVCAR-5
Malme-3M = test system: Malme-3M
HOP-92 = test system: HOP-92
786-0 = test system: 786-0
U-251 = test system: U-251
K562 = test system: K562
LXFL 529 = test system: LXFL 529
SNB-78 = test system: SNB-78
UACC-257 = test system: UACC-257
SF-268 = test system: SF-268
CAKI-1 = test system: CAKI-1
COLO 205 = test system: COLO 205
OVCAR-3 = test system: OVCAR-3
SN12C = test system: SN12C
ACHN = test system: ACHN
HCT-15 = test system: HCT-15
DMS-273 = test system: DMS-273
HCC 2998 = test system: HCC 2998
M19-MEL = test system: M19-MEL
HT-29 = test system: HT-29
SK-MEL-2 = test system: SK-MEL-2
KM12 = test system: KM12
NCI-H522 = test system: NCI-H522
EKVX = test system: EKVX
MOLT-4 = test system: MOLT-4
OVCAR-4 = test system: OVCAR-4
SW-620 = test system: SW-620
OVCAR-8 = test system: OVCAR-8
NCI-H23 = test system: NCI-H23
SR = test system: SR
TK-10 = test system: TK-10
DMS-114 = test system: DMS-114
SF-295 = test system: SF-295
A549 = test system: A549
LOX IMVI = test system: LOX IMVI
HL-60 = test system: HL-60
HOP-18 = test system: HOP-18
HOP-62 = test system: HOP-62
M14 = test system: M14
NCI-H460 = test system: NCI-H460
A498 = test system: A498
IGROV-1 = test system: IGROV-1
UACC-62 = test system: UACC-62
DLD-1 = test system: DLD-1
CCRF-CEM = test system: CCRF-CEM
SK-MEL-5 = test system: SK-MEL-5
SK-OV-3 = test system: SK-OV-3

Measured: GI50

O=c1[nH]c(-c2ccccc2)nc2ccc(Cl)cc12
inactive: SK-MEL-28 23.4 µM | RPMI-8226 33.2 µM | KM-20L2 29.2 µM | SNB-19 79.3 µM | NCI-H226 > 100 µM | UO-31 48.1 µM | HCT-116 > 100 µM | RXF 393 20 µM | SF-539 > 100 µM | OVCAR-5 > 100 µM | Malme-3M 48.6 µM | HOP-92 16.5 µM | 786-0 60.8 µM | U-251 > 100 µM | K562 26.9 µM | LXFL 529 29.4 µM | SNB-78 93.8 µM | UACC-257 42.4 µM | SF-268 28 µM | CAKI-1 20.9 µM | COLO 205 > 100 µM | OVCAR-3 31 µM | SN12C 41 µM | ACHN 73.1 µM | DMS-273 45.9 µM | HCC 2998 > 100 µM | M19-MEL 54.3 µM | HT-29 36.8 µM | SK-MEL-2 47 µM | KM12 68.5 µM | NCI-H522 20.5 µM | EKVX 54.7 µM | MOLT-4 34 µM | OVCAR-4 30.3 µM | SW-620 29.4 µM | OVCAR-8 43.8 µM | NCI-H23 77.4 µM | SR 85.5 µM | TK-10 35.2 µM | DMS-114 > 100 µM | SF-295 73.6 µM | A549 > 100 µM
35.7 µM: HCT-15

COc1ccc(C(=O)C(C(=O)CCC(=O)Nc2ccc(C)c(C)c2)c2ccc(OC)cc2)cc1 (stereo not given)
> 100 µM: HCT-15
inactive: KM-20L2 > 100 µM | SNB-19 > 10 µM | LOX IMVI > 100 µM | NCI-H226 > 100 µM | HL-60 > 100 µM | UO-31 > 100 µM | HCT-116 > 100 µM | OVCAR-5 > 100 µM | Malme-3M > 100 µM | HOP-92 48.9 µM | HOP-18 > 100 µM | LXFL 529 > 100 µM | HOP-62 > 100 µM | UACC-257 > 100 µM | CAKI-1 > 100 µM | COLO 205 > 100 µM | M14 > 100 µM | OVCAR-3 > 100 µM | SN12C > 100 µM | NCI-H460 > 100 µM | DMS-273 > 100 µM | HCC 2998 > 100 µM | M19-MEL > 100 µM | HT-29 > 100 µM | SK-MEL-2 > 100 µM | KM12 > 100 µM | OVCAR-4 > 100 µM | SW-620 > 100 µM | OVCAR-8 > 100 µM | SR > 100 µM | DMS-114 > 100 µM | SF-295 > 100 µM

COc1cc(Br)c(/C=N\c2cccc3ccc(OS(=O)(=O)c4ccc([N+](=O)[O-])cc4)cc23)cc1OC
10.5 µM: HCT-15
inactive: SK-MEL-28 28.6 µM | RPMI-8226 > 100 µM | A498 > 100 µM | SNB-19 63.4 µM | IGROV-1 > 100 µM | LOX IMVI 6.59 µM | NCI-H226 > 100 µM | UO-31 7.33 µM | HCT-116 > 100 µM | RXF 393 > 100 µM | SF-539 > 100 µM | OVCAR-5 > 100 µM | Malme-3M > 100 µM | HOP-92 47.3 µM | 786-0 75.7 µM | U-251 > 100 µM | LXFL 529 12.2 µM | SNB-78 34.2 µM | HOP-62 > 100 µM | UACC-257 > 100 µM | SF-268 > 100 µM | CAKI-1 6.19 µM | COLO 205 > 100 µM | OVCAR-3 > 100 µM | SN12C > 100 µM | NCI-H460 > 100 µM | ACHN 12.4 µM | UACC-62 29.4 µM | HCC 2998 36.4 µM | M19-MEL > 100 µM | HT-29 > 100 µM | SK-MEL-2 > 100 µM | KM12 59.4 µM | NCI-H522 48 µM | EKVX > 100 µM | MOLT-4 > 100 µM | OVCAR-4 > 100 µM | DLD-1 > 100 µM | SW-620 > 100 µM | CCRF-CEM > 100 µM | OVCAR-8 > 100 µM | SK-MEL-5 13.8 µM | NCI-H23 44.1 µM | SR > 100 µM | DMS-114 > 100 µM | SK-OV-3 > 100 µM | SF-295 5.06 µM | A549 33.7 µM
